pIC50: −log10 of the molar value.
Tests used:
[1] = test system: WM-164 cells; assay: Sulforhodamine B assay in melanoma cells, WM-164; type: cell-based; settings: Homo sapiens, WM164, read-out: IC50 WM-164; SRB assay, 48 h incubation; melanoma cell line
Experimental: (§1) SKMEL-188 cells were cultured in Ham's F10 medium (Gibco Invitrogen, Inc., Grand Island, N.Y.) plus 5% fetal bovine serum (Cellgro Mediatech, Inc., Herndon, Va.) and 1% antibiotic/antimycotic mixture (Sigma-Aldrich, Inc., St. Louis, Mo.). WM-164 cells (gift of Dr. Meenhard Herlyn, Wistar Inst., Philadelphia, Pa.) and human dermal fibroblasts (Cascade Biologics, Inc., Portland, Oreg.) were cultured in DMEM medium (Cellgro Mediatech, Inc.) supplemented with 5% fetal bovine serum, 1% antibiotic.antimycotic mixture and bovine insulin ([…], Sigma-Aldrich, Inc.). Human dermal fibroblasts were used as a control to examine the effects of compounds on stromal environment. Thus, the effect of the various compounds on melanoma cells versus fibroblasts would document their potential selectivity.
(§2) Sulforhodamine B Assay: Cells were seeded into 96-well plates at 5000 cells/well. After 12 hours, media were changed and serial dilutions of compounds were added. Cells were incubated with each compound for 48 hours. Fresh media containing the test compound were changed ever 24 hours. Thereafter, total cell protein corresponding to cell numbers (both viable and non-viable cells) were measured using the sulforhodamine B (SRB) assay according to manufacturer's protocol (Sigma-Aldrich, Inc.) (Rubinstein et al., “Comparison of in vitro Anticancer Drug-screening Data Generated with a Tetrazolium Assay Versus a Protein Assay Against a Diverse Panel of Human Tumor Cell Lines,” J. Natl. Cancer Inst. 82:1113-1118 (1990); Dothager et al., “Synthesis and Identification of Small Molecules that Potently Induce Apoptosis in Melanoma Cells Through GI Cell Cycle Arrest,” J. Am. Chem. Soc. 127:8686-8696 (2005), each of which is hereby incorporated by reference in its entirety). Briefly, cells were fixed with trichloracetic acid, washed and incubated with sulforhodamine B for 30 minutes. After another wash, dye incorporated into the cells was solubilized and measured using a plate reader at 565 nm.
(§3) Statistical Analysis: Data is presented as mean±SEM (n=6-8). […] Statistical analyses were performed with Student's t-test (*p<0.05; **p<0.005).
(§4) DTIC and Taxol were assayed in the same way for comparison and served as internal quality controls in the different batches of assay. For comparison, the activities of 5R and 5S were measured.

[2] = test system: LNCaP cells; assay: DNA fragmentation by agarose gel electrophoresis; type: cell-based, human; settings: treatment for 24 to […], 3-50 μM, FIGS. 4A-B
Experimental: In FIG. 4B, the dose and exposure time are indicated for compound 5 as follows: lane 1, 100 bp DNA marker; lane 2, 5 μM for 24 h; lane 3, 5 μM for 48 h; lane 4, 5 μM for 72 h; lane 5, 5 μM for 96 h; lane 6, 3 μM for 96 h; lane 7, 8 μM for 48 h; and lane 8, 8 μM for 72 h.

[3] = test system: SKMEL-188 melanoma cells; assay: Sulforhodamine B assay in melanoma cells, SKMEL-188; type: cell-based; settings: SK-MEL-188, 48 h, SRB assay, 48 h incubation; melanoma cell line
Experimental: as §1, §2, §3, §4

[4] = test system: human dermal fibroblasts; assay: Sulforhodamine B assay, fibroblast control cells; type: cell-based; settings: Homo sapiens, Fibroblast, 48 h, SRB assay, 48 h incubation
Experimental: as §1, §2, §3, §4

[5] = test system: PPC-1 human prostate cancer cells; assay: SRB cytotoxicity assay, PPC-1; type: cell-based; settings: Homo sapiens, PPC-1, 96 h exposure, prostate cancer cell line
Experimental: (§5) Dr. Mitchell Steiner at University of Tennessee Health Science Center, kindly provided PPC-1 and TSU-Pr1 cells.
(§6) For in vitro cytotoxicity screening, 1000 to 5000 cells were plated into each well of 96-well plates depending on growth rate, and exposed to different concentrations of a test compound for 96 h in three to five replicates. All the compounds were dissolved in dimethyl sulfoxide at 5 to 20 mM, and diluted to desired concentrations in complete culture medium. Cell numbers at the end of the drug treatment were measured by the SRB assay (Gududuru et al., “Synthesis and Biological Evaluation of Novel Cytotoxic Phospholipids for Prostate Cancer,” Bioorg. Med. Chem. Lett. 14:4919-4923 (2004); Rubinstein et al., “Comparison of in vitro Anticancer-Drug-Screening Data Generated with a Tetrazolium Assay Versus a Protein Assay Against a Diverse Panel of Human Tumor Cell Lines,” J. Natl. Cancer Inst. 82:1113-1118 (1990), each of which is hereby incorporated by reference in its entirety). Briefly, the cells were fixed with 10% of trichloroacetic acid, stained with 0.4% SRB, and the absorbances at 540 nm was measured using a plate reader (DYNEX Technologies, Chantilly, Va.). […] A sandwich ELISA (Roche, Mannheim, Germany) utilizing monoclonal antibodies specific for DNA and histones was used to quantify degree of apoptosis induced by the analogs after 72 h exposure. This assay measures DNA-histone complexes (mono- and oligonucleosomes) released into cytoplasm from the nucleus during apoptosis.

[6] = test system: OVCAR-3 human ovarian cancer cell line; assay: SRB cytotoxicity assay, OVCAR-3; type: cell-based
Experimental: (§7) For in vitro cytotoxicity screening, 1000 to 5000 cells were plated into each well of 96-well plates depending on growth rate, and exposed to different concentrations of a test compound for 96 h in three to five replicates. All the compounds were dissolved in dimethyl sulfoxide at 5 to 20 mM, and diluted to desired concentrations in complete culture medium. Cell numbers at the end of the drug treatment were measured by the SRB assay (Gududuru et al., “Synthesis and Biological Evaluation of Novel Cytotoxic Phospholipids for Prostate Cancer,” Bioorg. Med. Chem. Lett. 14:4919-4923 (2004); Rubinstein et al., “Comparison of in vitro Anticancer-Drug-Screening Data Generated with a Tetrazolium Assay Versus a Protein Assay Against a Diverse Panel of Human Tumor Cell Lines,” J. Natl. Cancer Inst. 82:1113-1118 (1990), each of which is hereby incorporated by reference in its entirety). Briefly, the cells were fixed with 10% of trichloroacetic acid, stained with 0.4% SRB, and the absorbances at 540 nm was measured using a plate reader (DYNEX Technologies, Chantilly, Va.). […] A sandwich ELISA (Roche, Mannheim, Germany) utilizing monoclonal antibodies specific for DNA and histones was used to quantify degree of apoptosis induced by the analogs after 72 h exposure. This assay measures DNA-histone complexes (mono- and oligonucleosomes) released into cytoplasm from the nucleus during apoptosis. RH7777 cells were employed because of nonspecific cytotoxicity of compound 4 in receptor-negative cells as well as receptor-positive prostate cancer cells.
(§8) In vitro cytotoxicity assay was performed by the same sulforhodamine B (SRB) assay (described above). The compounds shown in Table 8 below where tested for activity against the breast cancer and ovarian cancer cell lines.

[7] = test system: LNCaP human prostate cancer cells; assay: SRB cytotoxicity assay, LNCaP; type: cell-based; settings: Homo sapiens, LNCaP, 96 h exposure, prostate cancer cell line
Experimental: as §6

[8] = test system: PC-3 human prostate cancer cells; assay: SRB cytotoxicity assay, PC-3; type: cell-based; settings: Homo sapiens, 96 h exposure, prostate cancer cell line
Experimental: as §6

[9] = test system: TSU-Pr1 human prostate cancer cells; assay: SRB cytotoxicity assay, TSU-Pr1; type: cell-based; settings: Homo sapiens, TSU-Pr1, 96 h exposure, prostate cancer cell line
Experimental: as §5, §6

[10] = test system: RH7777 rat hepatoma cells; assay: SRB cytotoxicity assay, RH7777 control cell line; type: cell-based; settings: for pIC50: Rattus norvegicus, RH7777, SRB assay, 96 h exposure, control cell line
Experimental: as §6

[11] = test system: SKOv-3 human ovarian cancer cell line; assay: SRB cytotoxicity assay, SKOv-3; type: cell-based; settings: SK-OV-3
Experimental: as §7, §8

[12] = test system: CaOv-3 human ovarian cancer cell line; assay: SRB cytotoxicity assay, CaOv-3; type: cell-based
Experimental: as §7, §8

[13] = test system: DU-145 human prostate cancer cells; assay: SRB cytotoxicity assay, DU-145; type: cell-based; settings: Homo sapiens, DU-145, read-out: IC50 DU-145, 96 h exposure, prostate cancer cell line
Experimental: as §6

[14] = test system: LNCaP cells; assay: Apoptosis sandwich ELISA (DNA-histone complex), LNCaP; type: cell-based, human
Experimental: as §7
(§9) From the LPL receptor mRNA expression studies (Table 2), it was evident that these cell lines serve as an excellent model system to explore the effects of LPL receptor. Given the structural similarity of SAPs to ceramide (and the known ability of ceramide to induce apoptosis), it was then determined whether the antiproliferative effects of thiazolidine analogs were mediated via apoptotic events. The ability of the analogs to induce apoptosis in LNCaP, PC-3, and RH7777 cells was examined using a quantitative sandwich ELISA that measures DNA-histone complex released during apoptosis. The enrichment factor calculated (as ratio of OD405 in treated and un-treated cells) provides a quantitative assessment of the degree of apoptosis induced. Initially, only two compounds (4 & 5) were used for this study. Apoptotic activity of analog (compound 4) was selective in prostate cancer cells despite nonselective cytotoxicity in RH7777 negative control cells (see Table 5 below). Analog compound 5 induced apoptosis in PC-3 and LNCaP cells, but to a lesser extent in PC-3 cells perhaps due to lower potency in this cell line.

[15] = test system: PC-3 cells; assay: Apoptosis sandwich ELISA (DNA-histone complex), PC-3; type: cell-based, human
Experimental: as §7, §9

Row | Structure (SMILES) | pIC50 [1] | pIC50 [3] | pIC50 [4] | pIC50 [5] | pIC50 [6] | pIC50 [7] | pIC50 [8] | pIC50 [9] | melting point | pIC50 [10] | pIC50 [11] | pIC50 [12] | pIC50 [13] | other results
1 | CCCCCCCCCCCCCCCCCCNC(=O)[C@@H]1CSC(c2ccccc2)N1.Cl (mixture of isomers) [Compound 5, (2RS, 4R)-2-Phenylthiazolidine-4-carboxylic acid octadecylamide Hydrochloride] | < 4.30 | 4.40 | < 4.30 |  |  |  |  |  |  |  |  |  |  | DNA fragmentation (apoptosis) in LNCaP cells [2]: induce cell apoptosis
2 | CCCCCCCCCCCCCCCCCCNC(=O)[C@@H]1CSC(c2cccc(O)c2)N1 (mixture of isomers) [Compound 14, (2RS, 4R)-2-(3-Hydroxy-phenyl)-thiazolidine-4-carboxylic acid octadecylamide] |  |  |  | 5.92 | 5.09 | 5.77 | 5.17 | 5.40 | 50 °C | 4.51 | 4.96 | 4.74 | 5.24 | 
3 | CCCCCCCCCCCCCCCCCCNC(=O)[C@@H]1CSC(c2ccc(OC)c(OC)c2)N1.Cl (mixture of isomers) [Compound 16, (2RS, 4R)-2-(3,4-Dimethoxy-phenyl)-thiazolidine-4-carboxylic acid octadecylamide Hydrochloride] | 5.51 | 5.62 | < 5.00 | 6.24 | 5.92 | 6.07 |  | 5.62 | 103 °C | 4.99 | 5.44 | 5.26 | 5.35 | 
4 | CCCCCCCCCCCCCCCCCCNC(=O)[C@H]1CSC(c2ccccc2)N1 (stereo partly drawn) [5(S), (4S)—N-octadecyl-2-phenylthiazolidine-4-carboxamide] | 4.74 | 4.62 | 4.56 |  |  |  |  |  |  |  |  |  |  | Apoptosis enrichment factor (ratio of OD405 in treated and un-treated cells), LNCaP ([14]; 2 μM for 72 h): 3.1; Apoptosis enrichment factor (ratio of OD405 in treated and un-treated cells), LNCaP ([14]; 5 μM for 72 h): 5.4; Apoptosis enrichment factor (ratio of OD405 in treated and un-treated cells), LNCaP ([14]; 10 μM for 72 h): 25.8; Apoptosis enrichment factor (ratio of OD405 in treated and un-treated cells), LNCaP ([14]; 20 μM for 72 h): 46.8; Induction of apoptosis in LNCaP and PC-3 cells ([14]; LNCaP and PC-3 cells, lesser extent in PC-3): significantly induced apoptosis; Apoptosis enrichment factor (ratio of OD405 in treated and un-treated cells), PC-3 ([15]; 2 μM for 72 h): 1.1; Apoptosis enrichment factor (ratio of OD405 in treated and un-treated cells), PC-3 ([15]; 5 μM for 72 h): 1.2; Apoptosis enrichment factor (ratio of OD405 in treated and un-treated cells), PC-3 ([15]; 10 μM for 72 h): 1.4; Apoptosis enrichment factor (ratio of OD405 in treated and un-treated cells), PC-3 ([15]; 20 μM for 72 h): 2.7
5 | CCCCCCCCCCCCCCCCCCNC(=O)C1CSC(c2ccoc2)N1 (stereo not drawn) [Compound 12, 2-(furan-3-yl)-N-octadecylthiazolidine-4-carboxamide] |  |  |  | 5.96 | 5.64 | 5.77 | 5.09 | 5.38 |  | 4.98 | 5.27 | 5.11 | 5.18 | Fold less selective against RH7777 cell line than compound 5 ([10]; relative to compound 5): 3 fold

From US7662842B2, “Thiazolidinone amides, thiazolidine carboxylic acid amides, and serine amides, including polyamine conjugates thereof, as selective anti-cancer agents” (Ohio State Univesity Research Foundation, priority 2003, dated 2010)
